Results from patent publication US8168430B2, “Method for preparation of hepatocyte using ES cell” (Nihon University, priority 2006, dated 2012).

Assays:
TT2 ES cells [1] = assay: Expression of differentiation markers (RT-PCR, western blot) in ES cells induced to differentiate from embryoid bodies; conditions: for expression of the differentiation markers for hepatocyte (albumin, Cyp7a1 etc.): cultured 18 days in supplemented differentiation-inducing medium, RT-PCR and western blot
TT2 ES cells [2] = assay: FACS analysis of albumin producing cells; type: cell-based, mouse; conditions: cultured 9 days; FACS with anti-albumin antibodies; control 22%
Protocol: The medium of the cultured cells was removed and washing was performed using PBS (−). After the cells were detached from the surface of the dish using 0.25% trypsin solution, 5 mL of a collagenase solution as described below was added to the cells and the cells were incubated at 37° C. for 30 minutes in order to digest the intercellular adhesion.
After digestion, cells were collected by centrifugation (1000 rpm, 4° C., 5 minutes) and fixed using 1 mL of ice-chilled 100% methanol. After fixing the cells, centrifugation (1500 rpm, 4° C., 5 minutes) was performed in order to remove the methanol. […] Then FITC-bonded sheep anti-rabbit IgG (MP Biomedicals Inc., Catalog# 55647, Lot# 02756) was added to the cells and the cells were allowed to stand for one hour while shielding against light. After standing for one hour, the cells were loaded by a FACS Canto™ (Becton Dickinson, Franklin Lakes, N.J.) wherein a FSC voltage was set to 80, a FITC voltage was set to 300 and a threshold was set to 1000. Thereafter BD DiVa Software was used for analysis. In FIGS. 12 and 13, the intensity of FITC is shown on the horizontal axis and FSC is shown on the vertical axis.
Then uPA, DFP-treated uPA or tPA was added to differentiation-inducing medium and cultured for 9 days. Cells were isolated using trypsin treatment and collagenase treatment, and FACS analysis was performed using anti-albumin antibodies.

| Molecule | expression of the differentiation markers for hepatocyte (albumin, Cyp7a1 etc.) (TT2 ES cells [1]) | albumin producing cells, share of the total number of cells (TT2 ES cells [2]) | induction of differentiation into hepatocytes (TT2 ES cells [1]; differentiation-inducing medium supplemented with the factor) |
| --- | --- | --- | --- |
| N=C(N)c1ccc(N)cc1 [p-aminobenzamidine, reference compound] | suppressed | – | – |
| tPA: tissue-type PA which has the same substrate specificity as uPA | almost no change | 27.2% | did not induce differentiation into hepatocytes |
